Data on 14 molecules can be found in article PMC8092340 (Oncotarget, 2021).

As a reminder, the IC50 is the concentration needed to halve the response being measured.

The subject of series [1] is EJ-DR U2OS cells. As to the kind of experiment: Cytotoxicity in the absence of DSB ligands (CT), Hoechst cell count. It counts as cell-based, human. Particulars: Supplementary Table 2, mean ± SEM of four technical replicates.
Procedure: (§2) In addition to quantifying HR and alt-NHEJ activities, cytotoxicity in the absence of DSB ligands (CT) was also evaluated by quantifying the number of Hoeschst 33342-stained cells, allowing us to better understand the margin between on-target and presumable off-target, DNA repair-independent effects. IC50 values of HR inhibition, alt-NHEJ inhibition, and CT were used to calculate the “selectivity index” (SI) (defined as the ratio of CT IC50/alt-NHEJ IC50) and alt-NHEJ selectivity defined as HR IC50/alt-NHEJ IC50. […] (Figure 1E).
(§3) The EJ-DR cell line was cultured in high glucose Dulbecco’s modified Eagle’s medium (DMEM; Thermo Fisher Scientific) with L-glutamine containing 10% tetracycline-free (tet-free) fetal bovine serum (FBS; Takara Bio Inc. and Atlanta Biologics) and 1% Penicillin Streptomycin (Thermo Fisher Scientific). […] All cells were maintained at 37°C with 5% CO2.
(§4) The EJ-DR cells were plated in 384-well imaging plates at 2500 cells/well. 24 hours later, the DSB ligands, Triamcinolone Acetonide (TA; Sigma-Aldrich Co., LLC) and Shield-1 (Takara Bio Inc.), responsible for inducing the DSBs, were added for a final concentration of 100 nM TA and 1 μM Shield-1. Test compounds were also added at the same time using Echo 550 Acoustic Dispenser (Labcyte). A separate plate was seeded to test for cytotoxicity of the test compounds in the absence of the DSB ligands. […] The DSB ligands were washed out 24 hours after addition. 96 hours after addition of the ligands and test compounds, the media was washed off and cells were incubated with Hoechst nuclear stain in Live Cell Imaging Solution (Thermo Fisher Scientific). Plates were rinsed and prepared for immediate live cell imaging using GE IN Cell 2200 (Cytiva Life Sciences). Images were analyzed using InCell Analyzer software (Cytiva Life Sciences). Nuclei were segmented based on the Hoechst staining, and the intensity of the GFP and RFP signals in control populations were measured and binned into histograms to determine signal intensity threshold. The GFP and RFP intensity of all wells was then analyzed, and the percent of positive cells with GFP and RFP intensity above the threshold was calculated to determine the induction of signal. The DAPI cell counts were used to determine the relative cytotoxicity of test compounds in the absence of induced DNA damage.
Series [2] relates to HR. As to the kind of experiment: EJ-DR 384-well imaging assay, HR (GFP) readout. Particulars: read-out: HR IC50.
Source text: (§5) The EJ-DR system was made in the U2OS cell line, which provides a simultaneous read-out of alt-NHEJ and HR activity in cells in response to induced DSBs. The cell line consists of a repair template and a reporter vector. When both these elements are chromosomally integrated, cleavage of a restriction enzyme site in the repair template, induced by ligand addition, causes a DSB. Depending on which DSB repair pathway is utilized, cells either express GFP if HR is used to repair the break site using the downstream homology template near the restriction enzyme site, or RFP if alt-NHEJ is involved in ligation of the cut ends.
(§6) An overview of the workflow of this assay is presented in Figure 1A, which starts with the addition of the test compounds and DSB ligands, followed by a media wash 24 hours later to terminate DSB induction, and then live cell imaging 96 hours later. After live cell imaging, we quantify the individual intensities of GFP and RFP signal in cells using the IN Cell imager. We then use the intensity measurements of individual cells in each channel and plot these intensities as a histogram to threshold out baseline levels of GFP and RFP intensity in the absence of ligands (Figure 1B and 1C). After applying the threshold, the percent of GFP and RFP-positive cells is calculated as a readout of induction of HR and alt-NHEJ activity, respectively.
(§7) In addition to quantifying HR and alt-NHEJ activities, cytotoxicity in the absence of DSB ligands (CT) was also evaluated by quantifying the number of Hoeschst 33342-stained cells, allowing us to better understand the margin between on-target and presumable off-target, DNA repair-independent effects. IC50 values of HR inhibition, alt-NHEJ inhibition, and CT were used to calculate the “selectivity index” (SI) (defined as the ratio of CT IC50/alt-NHEJ IC50) and alt-NHEJ selectivity defined as HR IC50/alt-NHEJ IC50.
(§8) The EJ-DR cell line was created in the U2OS cells (a human osteosarcoma cell line), and contained a stably integrated EJ-RFP plasmid to measure alt-NHEJ repair and a DR-GFP plasmid to measure HR repair, and has been previously described [9]. The EJ-DR cell line was cultured in high glucose Dulbecco’s modified Eagle’s medium (DMEM; Thermo Fisher Scientific) with L-glutamine containing 10% tetracycline-free (tet-free) fetal bovine serum (FBS; Takara Bio Inc. and Atlanta Biologics) and 1% Penicillin Streptomycin (Thermo Fisher Scientific). Tet-free FBS was used to prevent any expression of the tetracycline-inducible EJ-RFP system from residual tetracycline found in most commercially available FBS. All cells were maintained at 37°C with 5% CO2.
(§9) The EJ-DR cells were plated in 384-well imaging plates at 2500 cells/well. 24 hours later, the DSB ligands, Triamcinolone Acetonide (TA; Sigma-Aldrich Co., LLC) and Shield-1 (Takara Bio Inc.), responsible for inducing the DSBs, were added for a final concentration of 100 nM TA and 1 μM Shield-1. Test compounds were also added at the same time using Echo 550 Acoustic Dispenser (Labcyte). A separate plate was seeded to test for cytotoxicity of the test compounds in the absence of the DSB ligands. […] The DSB ligands were washed out 24 hours after addition. 96 hours after addition of the ligands and test compounds, the media was washed off and cells were incubated with Hoechst nuclear stain in Live Cell Imaging Solution (Thermo Fisher Scientific). Plates were rinsed and prepared for immediate live cell imaging using GE IN Cell 2200 (Cytiva Life Sciences).
The subject of series [3] is alt-NHEJ. As to the kind of experiment: EJ-DR 384-well imaging assay, alt-NHEJ (RFP) readout. Particulars: for IC50: read-out: alt-NHEJ IC50; for Selectivity Index (HR IC50/alt-NHEJ IC50) / selectivity index SI (CT IC50/alt-NHEJ IC50): ratio; for Selectivity Index (HR IC50/alt-NHEJ IC50): Supplementary Table 2.
Source text: as §5, §6, §7, §8, §9
Series [4] is described as follows: Cytotoxicity in the absence of DSB ligands (CT), Hoechst cell count. It counts as cell-based, human. Particulars: human, EJ-DR U2OS cells; no DSB ligands; figures; read-out: CT IC50 (cytotoxicity).
Procedure: as §2, §3, §4
For series [5], the target named is T1, CYP3A4 (Homo sapiens, UniProt P08684).
T1 construct: tissue Eurofins Scientific; host or cells: human liver microsomes
As to the kind of experiment: Cytochrome P450 inhibition assay in human liver microsomes, CYP3A4. Format: in vitro ADME. Particulars: human liver microsomes; for selectivity ratio: human, read-out: SICYP 3A4 (selectivity index of CYP, CYP3A4 IC50 to alt-NHEJ IC50), called fold decrease in CYP3A4 inhibition. On the procedure: (§1) CYP inhibition assays were performed by Eurofins Scientific. Test compounds were incubated with human liver microsomes, followed by compound detection using high performance liquid chromatography with tandem mass spectrometry (HPLC-MS/MS).

In series [6] the target is T2, CYP2D6 (Homo sapiens, UniProt P10635).
T2 construct: tissue Eurofins Scientific; host or cells: human liver microsomes
As to the kind of experiment: Cytochrome P450 inhibition assay in human liver microsomes, CYP2D6. It counts as in vitro ADME. Particulars: for IC50 / selectivity ratio: human liver microsomes; for selectivity ratio: human, read-out: SICYP 2D6 (selectivity index of CYP, CYP2D6 IC50 to alt-NHEJ IC50), called fold decrease in CYP2D6 inhibition. On the procedure: as §1

[7] abbreviates: EJ-DR U2OS cells, text and figures.
The mark [8] stands for this setting: EJ-DR assay, Supplementary Table 2, mean ± SEM of four technical replicates.

Like-named read-outs stand apart in the source and are kept apart here.

T2 sequence (P10635 whole entry): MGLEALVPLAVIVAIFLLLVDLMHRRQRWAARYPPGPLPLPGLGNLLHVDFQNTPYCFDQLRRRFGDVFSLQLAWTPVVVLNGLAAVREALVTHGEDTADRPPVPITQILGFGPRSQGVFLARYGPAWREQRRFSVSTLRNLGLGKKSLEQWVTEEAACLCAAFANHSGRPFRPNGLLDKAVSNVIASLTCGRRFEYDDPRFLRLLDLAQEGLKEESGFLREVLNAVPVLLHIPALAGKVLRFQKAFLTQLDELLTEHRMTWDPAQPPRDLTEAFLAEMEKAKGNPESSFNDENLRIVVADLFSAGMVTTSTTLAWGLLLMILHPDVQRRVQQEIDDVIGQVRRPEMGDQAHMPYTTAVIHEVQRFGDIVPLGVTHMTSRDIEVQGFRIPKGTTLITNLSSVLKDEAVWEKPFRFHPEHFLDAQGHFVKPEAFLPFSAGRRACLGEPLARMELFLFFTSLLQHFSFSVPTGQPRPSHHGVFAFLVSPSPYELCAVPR
T1 sequence (P08684 whole entry): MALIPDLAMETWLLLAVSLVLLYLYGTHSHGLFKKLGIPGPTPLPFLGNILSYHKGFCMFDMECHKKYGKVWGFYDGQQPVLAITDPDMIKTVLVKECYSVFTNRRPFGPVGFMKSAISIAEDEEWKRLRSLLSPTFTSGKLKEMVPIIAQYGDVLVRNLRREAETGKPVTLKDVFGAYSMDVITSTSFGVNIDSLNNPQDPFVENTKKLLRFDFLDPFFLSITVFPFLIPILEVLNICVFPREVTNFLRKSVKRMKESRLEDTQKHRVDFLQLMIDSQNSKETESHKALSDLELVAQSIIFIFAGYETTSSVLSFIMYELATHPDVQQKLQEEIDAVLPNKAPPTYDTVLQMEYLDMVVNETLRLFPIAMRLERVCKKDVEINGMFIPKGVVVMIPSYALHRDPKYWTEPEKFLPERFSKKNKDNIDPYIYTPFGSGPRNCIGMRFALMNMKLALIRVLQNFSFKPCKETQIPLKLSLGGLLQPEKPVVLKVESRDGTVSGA

Turning to `NC1(C(=O)N[C@@H](CCO)c2ccc(Cl)cc2)CCN(c2ncnc3[nH]ccc23)CC1` [AZD 5363], the IC50 was found to be 48.5 ± 73 µM in series [1] (Homo sapiens, U2OS); 31.6 ± 59.2 µM in series [2] (Homo sapiens); 16.9 ± 26.5 µM in series [3] (Homo sapiens). In addition, the “Selectivity Index (HR IC50/alt-NHEJ IC50)” value in series [3] was 1.87.
Regarding `NC(=O)Nc1cc(-c2cccc(F)c2)sc1C(=O)N[C@H]1CCCNC1` [AZD 7762], the IC50 in series [1] (Homo sapiens, U2OS) is 0.13 ± 0.01 µM; in series [2] (Homo sapiens), > 60 µM; in series [3] (Homo sapiens) it was > 60 µM.
On to `COc1ccc(-c2ccc3c(N4CCOC[C@@H]4C)nc(N4CCOC[C@@H]4C)nc3n2)cc1CO` [AZD 8055], for which the IC50 came to 0.89 ± 0.28 µM in series [1] (Homo sapiens, U2OS); 2.85 ± 1.04 µM in series [2] (Homo sapiens); 0.05 ± 0.01 µM in series [3] (Homo sapiens). For the same molecule, the “Selectivity Index (HR IC50/alt-NHEJ IC50)” value in series [3] is reported as 57.00.
For `O.O=C(O)C(F)(F)F.O=c1[nH]c2ccccc2n1C1CCN(Cc2ccc(-c3nc4cc5[nH]cnc5cc4nc3-c3ccccc3)cc2)CC1` [Akt-1/2 inhibitor], the results for the 50% inhibitory concentration (IC50) in series [2] (setting [7]) and in series [3] (setting [7]) were > 10 µM and 0.15 µM, respectively. Besides, in series [3], the “selectivity index SI (CT IC50/alt-NHEJ IC50)” value came to 77.67.
For the molecule `CO[C@H]1C[C@@H]2CC[C@@H](C)[C@@](O)(O2)C(=O)C(=O)N2CCCC[C@H]2C(=O)O[C@H]([C@H](C)C[C@@H]2CC[C@@H](OCCO)[C@H](OC)C2)CC(=O)[C@H](C)/C=C(\C)[C@@H](O)[C@@H](OC)C(=O)[C@H](C)C[C@H](C)/C=C/C=C/C=C/1C` [Everolimus], the IC50 in series [1] (Homo sapiens, U2OS) was 3.17 ± 2.05 µM; in series [2] (Homo sapiens), 0.07 ± 0.03 µM; in series [3] (Homo sapiens), 0.05 ± 0.03 µM. Besides, the “Selectivity Index (HR IC50/alt-NHEJ IC50)” value in series [3] stood at 1.40.
For the molecule `CC(C)NC[C@@H](C(=O)N1CCN(c2ncnc3c2[C@H](C)C[C@H]3O)CC1)c1ccc(Cl)cc1` [GDC-0068], the IC50 amounted to 41.5 ± 3.32 µM in series [1] (Homo sapiens, U2OS); 22.1 ± 1.84 µM in series [2] (Homo sapiens); 9.4 ± 1.78 µM in series [3] (Homo sapiens). The “Selectivity Index (HR IC50/alt-NHEJ IC50)” value in series [3] was determined as 2.35.
As to `NC1(c2ccc(-c3nc4ccn5c(=O)[nH]nc5c4cc3-c3ccccc3)cc2)CCC1` [MK-2206], the IC50 in series [1] (Homo sapiens, U2OS) was 16.5 ± 2.56 µM; in series [2] (Homo sapiens), 4.4 ± 5.17 µM; in series [3] (Homo sapiens), 0.66 ± 0.31 µM. The “Selectivity Index (HR IC50/alt-NHEJ IC50)” value in series [3] was determined as 6.67.
Regarding `O=c1cc(N2CCOCC2)oc2c(-c3cccc4c3sc3ccccc34)cccc12` [NU 4771], the “effect on alt-NHEJ and HR in the EJ-DR assay” value in series [3] (EJ-DR U2OS cells) is “increase in both alt-NHEJ and HR”.
On to `CCc1cncnc1N1CCN(Cc2nc3ccc(C(F)(F)F)cc3[nH]2)CC1` [PF-04708671], for which the IC50 was 36.9 ± 3.82 µM in series [1], > 60 µM in series [2] (setting [8]) and > 60 µM in series [3] (setting [8]).
Turning to `CC(=O)c1c(C)c2cnc(Nc3ccc(N4CCNCC4)cn3)nc2n(C2CCCC2)c1=O` [Pablociclib], the IC50 in series [1] is 1.37 ± 0.36 µM; in series [2] (setting [8]), 0.06 ± 0.01 µM; in series [3] (setting [8]) it was 0.04 ± 0.01 µM. Further, the “Selectivity Index (HR IC50/alt-NHEJ IC50)” value in series [3] is given as 1.50.
Turning to `CC(C)C1c2ccccc2CCN1C(=O)CC1CCN(C(=O)OC(C)(C)C)CC1` (stereo not drawn) [YU241542], the half-maximal inhibitory concentration (IC50) at 96 h in series [4] is > 60 µM. Also, the IC50 in series [3] (Homo sapiens, U2OS) turned out to be 41.3 µM. Moreover, in series [3], the “selectivity index SI (CT IC50/alt-NHEJ IC50)” value is reported as > 1.45.
Take `COCC(=O)OC1(CCN2CC(Oc3nccc4ccccc34)CC2CO)CCc2cc(F)ccc2C1C(C)C` (stereo not drawn) [YU252376]: the half-maximal inhibitory concentration (IC50) worked out at 12.6 µM in series [5]; 3.5 µM in series [6]; 1.1 µM in series [3] (Homo sapiens, U2OS). In addition, the selectivity ratio in series [5] is 11.4; in series [6] (ratio) it was ~3. Besides, the “SICYP 2D6 (selectivity index of CYP, CYP2D6 IC50 to alt-NHEJ IC50), called fold decrease in CYP2D6 inhibition” value in series [6] (ratio) was found to be 3.18.
Regarding `O=C(NC(CCN1CC(Oc2nccc3ccccc23)CC1CO)c1ccc(F)cc1)C1CCC(F)(F)CC1` (stereo not drawn) [YU253106], the 50% inhibitory concentration (IC50) was found to be 14.5 µM in series [5]; 2.3 µM in series [6]; 1.4 µM in series [3] (Homo sapiens, U2OS). For the same molecule, the selectivity ratio amounted to 10.3 in series [5] and 1.64 in series [6] (ratio).
For `C[C@H]1COCCN1c1cc(C2(S(=O)(=O)C3CC3)CC2)nc(-c2ccc(NC(=S)NCCO)cc2)n1` [mTORC1/2 inhibitor, AZD 3147], the IC50 in series [2] (setting [7]) is 7.18 µM; in series [3] (setting [7]), 0.09 µM. In addition, in series [3], the “selectivity index SI (CT IC50/alt-NHEJ IC50)” value came to 7.22.
